Patent US12049439B2 (OrsoBio, Inc., priority 2018, dated 2024)
Read-outs that look alike come from different tables or passages of the source.

Test system: PC-3 cells
Assay: PC-3 Oxygen Rate Consumption (OCR) Assay
Format: cell-based
Details: medium with 2% FBS, OCR at 3-min post-injection normalized to % increase over DMSO-treated cells, concentration for half-maximal OCR increase, read-out: EC50-PC3-OCR-FBS-3min
Method in brief: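 PC-3 cells seeded a day before, equilibrated 1 h in XF medium with 10 mM glucose, 1 mM pyruvate, 2% FBS, non-CO2 at 37 °C. Compound injected after basal OCR reads; OCR at 3 min post-injection normalized as % increase over DMSO, EC50 = half-maximal increase; six replicates.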

Row | Compound | EC50 (Homo sapiens, 0.05 h) | EC50
1 | CCS(=O)(=O)Nc1cc(C(F)(F)F)ccc1C(=O)NC12CCC(C#N)(CC1)CC2 [Example 133, N-(4-cyanobicyclo[2.2.2]octan-1-yl)-2-(ethylsulfonamido)-4-(trifluoromethyl)benzamide] | 14.7 µM | 
2 | N#CC12CCC(NC(=O)c3ccc(F)cc3NS(=O)(=O)CCC(F)(F)F)(CC1)CC2 [Example 134, N-(4-cyanobicyclo[2.2.2]octan-1-yl)-4-fluoro-2-((3,3,3-trifluoropropyl)sulfonamido)benzamide] | 2.68 µM | 
3 | N#CC12CCC(NC(=O)c3ccc(Cl)cc3NS(=O)(=O)CCC(F)(F)F)(CC1)CC2 [Example 135, 4-chloro-N-(4-cyanobicyclo[2.2.2]octan-1-yl)-2-((3,3,3-trifluoropropyl)sulfonamido)benzamide] | 1.62 µM | 
4 | CS(=O)(=O)Nc1c(F)cccc1C(=O)NC12CC(C(F)(F)F)(C1)C2 [Example 136, 3-fluoro-2-(methylsulfonamido)-N-(3-(trifluoromethyl)bicyclo[1.1.1]pentan-1-yl)benzamide] | ≥ 100 µM | 
5 | CS(=O)(=O)Nc1cc(F)ccc1C(=O)NC12CC(C1)C2 [Example 137, N-(bicyclo[1.1.1]pentan-1-yl)-4-fluoro-2-(methylsulfonamido)benzamide] | ≥ 100 µM | 
6 | CS(=O)(=O)Nc1ccccc1C(=O)NC12CC(C(F)(F)F)(C1)C2 [Example 138, 2-(methylsulfonamido)-N-(3-(trifluoromethyl)bicyclo[1.1.1]pentan-1-yl)benzamide] | ≥ 100 µM | 
7 | CS(=O)(=O)Nc1cc(F)ccc1C(=O)NC12C3C4C5C3C1C5C42 (stereo not drawn) [Example 139, N-(cuban-1-yl)-4-fluoro-2-(methylsulfonamido)benzamide] | 23.7 µM | 
8 | CS(=O)(=O)Nc1ccc(F)cc1C(=O)NC12CC(C(F)(F)F)(C1)C2 [Example 140, 5-fluoro-2-(methylsulfonamido)-N-(3-(trifluoromethyl)bicyclo[1.1.1]pentan-1-yl)benzamide] | 36.1 µM | 
9 | O=C(NC12CC(C(F)(F)F)(C1)C2)c1ccccc1NS(=O)(=O)c1ccc(Cl)cc1Cl [Example 141, 2-((2,4-dichlorophenyl)sulfonamido)-N-(3-(trifluoromethyl)bicyclo[1.1.1]pentan-1-yl)benzamide] | 1.18 µM | 
10 | CS(=O)(=O)Nc1cccc(F)c1C(=O)NC12CC(C(F)(F)F)(C1)C2 [Example 142, 2-fluoro-6-(methylsulfonamido)-N-(3-(trifluoromethyl)bicyclo[1.1.1]pentan-1-yl)benzamide] | ≥ 100 µM | 
11 | O=C(NC12CC(C(F)(F)F)(C1)C2)c1ccccc1NS(=O)(=O)CC(F)(F)F [Example 143, 2-((2,2,2-trifluoroethyl)sulfonamido)-N-(3-(trifluoromethyl)bicyclo[1.1.1]pentan-1-yl)benzamide] | 10.2 µM | 
12 | O=C(NC12CC(C(F)(F)F)(C1)C2)c1ccccc1NS(=O)(=O)C(F)(F)F [Example 144, N-(3-(trifluoromethyl)bicyclo[1.1.1]pentan-1-yl)-2-((trifluoromethyl)sulfonamido)benzamide] | 18.6 µM | 
13 | CS(=O)(=O)Nc1c(F)cccc1C(=O)NC12CC(C(F)(F)F)(C1)C2 [Example 145, 3-fluoro-2-(methylsulfonamido)-N-(3-(trifluoromethyl)bicyclo[1.1.1]pentan-1-yl)benzamide] |  | ≥ 100 µM
14 | CS(=O)(=O)Nc1cc(S(F)(F)(F)(F)F)ccc1C(=O)NC12CC(C(F)(F)F)(C1)C2 [Example 146, 2-(methylsulfonamido)-4-(pentafluoro-λ^6-sulfanyl)-N-(3-(trifluoromethyl)bicyclo[1.1.1]pentan-1-yl)benzamide] | 0.677 µM | 
15 | CS(=O)(=O)Nc1cc(C(F)(F)F)ccc1C(=O)NC12CC(C(F)(F)F)(C1)C2 [Example 147, 2-(methylsulfonamido)-4-(trifluoromethyl)-N-(3-(trifluoromethyl)bicyclo[1.1.1]pentan-1-yl)benzamide] | 1.58 µM | 
16 | CS(=O)(=O)Nc1cc(C#N)ccc1C(=O)NC12CC(C(F)(F)F)(C1)C2 [Example 148, 4-cyano-2-(methylsulfonamido)-N-(3-(trifluoromethyl)bicyclo[1.1.1]pentan-1-yl)benzamide] | 17.7 µM | 
17 | O=C(NC12CC(C(F)(F)F)(C1)C2)c1ccc(F)cc1NS(=O)(=O)c1ncccn1 [Example 149, 4-fluoro-2-(pyrimidine-2-sulfonamido)-N-(3-(trifluoromethyl)bicyclo[1.1.1]pentan-1-yl)benzamide] | ≥ 20 µM | 

Row | Compound | EC50 (Homo sapiens, 0.05 h) | EC50
18 | CS(=O)(=O)c1ccc(NS(=O)(=O)c2ccc(S(F)(F)(F)(F)F)cc2)c(C(=O)NC23CC(C(F)(F)F)(C2)C3)c1 [Example 150, 5-(methylsulfonyl)-2-((4-(pentafluoro-λ^6-sulfanyl)phenyl)sulfonamido)-N-(3-(trifluoromethyl)bicyclo[1.1.1]pentan-1-yl)benzamide] | ≥ 20 µM | 
19 | [2H]C([2H])([2H])C(c1ccc(S(=O)(=O)Nc2ccc(S(C)(=O)=O)cc2C(=O)NC23CC(C(F)(F)F)(C2)C3)cc1)(C([2H])([2H])[2H])C([2H])([2H])[2H] [Example 151, 2-((4-(2-(methyl-d3)propan-2-yl-1,1,1,3,3,3-d6)phenyl)sulfonamido)-5-(methylsulfonyl)-N-(3-(trifluoromethyl)bicyclo[1.1.1]pentan-1-yl)benzamide] | 9.39 µM | 
20 | CC(C)(C)S(=O)(=O)c1ccc(S(=O)(=O)Nc2cc(F)ccc2C(=O)NC23CC(C(F)(F)F)(C2)C3)cc1 [Example 152, 2-((4-(tert-butylsulfonyl)phenyl)sulfonamido)-4-fluoro-N-(3-(trifluoromethyl)bicyclo[1.1.1]pentan-1-yl)benzamide] | 1.13 µM | 
21 | CC(C)(C)S(=O)(=O)c1ccc(S(=O)(=O)Nc2cc(F)ccc2C(=O)NC23CC(C#N)(C2)C3)cc1 [Example 153, 2-((4-(tert-butylsulfonyl)phenyl)sulfonamido)-N-(3-cyanobicyclo[1.1.1]pentan-1-yl)-4-fluorobenzamide] | 10.7 µM | 
22 | CS(=O)(=O)c1ccc(S(=O)(=O)Nc2cc(S(F)(F)(F)(F)F)ccc2C(=O)NC23CC(C(F)(F)F)(C2)C3)cc1 [Example 154, 2-((4-(methylsulfonyl)phenyl)sulfonamido)-4-(pentafluoro-λ^6-sulfanyl)-N-(3-(trifluoromethyl)bicyclo[1.1.1]pentan-1-yl)benzamide] | 8.02 µM | 
23 | CS(=O)(=O)c1ccc(S(=O)(=O)Nc2cc(S(F)(F)(F)(F)F)ccc2C(=O)NC23CC(C2)C3)cc1 [Example 155, N-(bicyclo[1.1.1]pentan-1-yl)-2-((4-(methylsulfonyl)phenyl)sulfonamido)-4-(pentafluoro-λ^6-sulfanyl)benzamide] | 5.87 µM | 
24 | CC(C)(C)S(=O)(=O)Nc1ccc(C(F)(F)F)cc1C(=O)NC12CCC(C(=O)O)(CC1)CC2 [Example 156, 4-(2-((1,1-dimethylethyl)sulfonamido)-5-(trifluoromethyl)benzamido)bicyclo[2.2.2]octane-1-carboxylic Acid] | ≥ 200 µM | 
25 | CC(C)(C)S(=O)(=O)Nc1ccc(C(F)(F)F)cc1C(=O)NC12CC(C(F)(F)F)(C1)C2 [Example 157, 2-((1,1-dimethylethyl)sulfonamido)-5-(trifluoromethyl)-N-(3-(trifluoromethyl)bicyclo[1.1.1]pentan-1-yl)benzamide] | 0.352 µM | 
26 | N#Cc1ccc(S(=O)(=O)Nc2cc(C(F)(F)F)ccc2C(=O)NC23CC(C(F)(F)F)(C2)C3)cc1 [Example 158, 2-((4-cyanophenyl)sulfonamido)-4-(trifluoromethyl)-N-(3-(trifluoromethyl)bicyclo[1.1.1]pentan-1-yl)benzamide] | 1.43 µM | 
27 | O=C(NC12CC(C(F)(F)F)(C1)C2)c1ccc(C(F)(F)F)cc1NS(=O)(=O)c1ccc(-c2nnn[nH]2)cc1 [Example 159, 2-((4-(1H-tetrazol-5-yl)phenyl)sulfonamido)-4-(trifluoromethyl)-N-(3-(trifluoromethyl)bicyclo[1.1.1]pentan-1-yl)benzamide] | ≥ 200 µM | 
28 | N#Cc1ccc(S(=O)(=O)Nc2cc(C(F)(F)F)ccc2C(=O)NC23CC(c4ccccc4)(C2)C3)cc1 [Example 160, 2-((4-cyanophenyl)sulfonamido)-N-(3-phenylbicyclo[1.1.1]pentan-1-yl)-4-(trifluoromethyl)benzamide] | 0.632 µM | 
29 | CC(C)(C)S(=O)(=O)Nc1cc(S(F)(F)(F)(F)F)ccc1C(=O)NC12CCC(C#N)(CC1)CC2 [Example 161, N-(4-cyanobicyclo[2.2.2]octan-1-yl)-2-((1,1-dimethylethyl)sulfonamido)-4-(pentafluoro-λ^6-sulfanyl)benzamide] | 1.09 µM | 
30 | O=C(NC12CC(C(F)(F)F)(C1)C2)c1cc(C(F)(F)F)ccc1NS(=O)(=O)C1CCS(=O)(=O)CC1 [Example 162, 2-((1,1-dioxidotetrahydro-2H-thiopyran)-4-sulfonamido)-5-(trifluoromethyl)-N-(3-(trifluoromethyl)bicyclo[1.1.1]pentan-1-yl)benzamide] | 34.1 µM | 
31 | CN(C)S(=O)(=O)Nc1cc(C(F)(F)F)ccc1C(=O)NC12CCC(C#N)(CC1)CC2 [Example 163, N-(4-cyanobicyclo[2.2.2]octan-1-yl)-2-((N,N-dimethylsulfamoyl)amino)-4-(trifluoromethyl)benzamide] | 3.77 µM | 
32 | CC(C)(C)S(=O)(=O)Nc1ccc(C(F)(F)F)cc1C(=O)NC12CC(C#N)(C1)C2 [Example 164, N-(3-cyanobicyclo[1.1.1]pentan-1-yl)-2-((1,1-dimethylethyl)sulfonamido)-5-(trifluoromethyl)benzamide] | 1.74 µM | 
33 | CS(=O)(=O)Nc1ccc(C(F)(F)F)cc1C(=O)NC12CC(C#N)(C1)C2 [Example 165, N-(3-cyanobicyclo[1.1.1]pentan-1-yl)-2-(methylsulfonamido)-5(trifluoromethyl)benzamide] | 20.8 µM | 
